Reference: the RepoRT retention time repository (doi:10.1016/j.jchromb.2020.122105)

Legend:
Settings in all cases: stereoisomer not certain
[1] = RP, Waters ACQUITY UPLC BEH C18, 100 × 2.1 mm, 1.7 µm, 0.2 mL/min, estimated dead time 1.1 min; A: water + 0.025% formic acid + 20 mM ammonium acetate + 0.055% ammonium hydroxide, pH 7; B: methanol; gradient (min/%B) 0/5 5/5 25/100 30/100 30.1/5 35/5
[2] = RP, Waters ACQUITY UPLC BEH C18, 100 × 2.1 mm, 1.7 µm, 0.1 mL/min, estimated dead time 2.2 min; A: water + 0.1% formic acid, pH 3; B: methanol + 0.1% formic acid, pH 3; gradient (min/%B) 0/5 5/5 25/100 30/100 30.1/5 35/5
[3] = RP, Waters CORTECS T3, 100 × 2.1 mm, 2.7 µm, 0.15 mL/min, estimated dead time 1.5 min; A: water + 0.1% formic acid, pH 3; B: methanol + 0.1% formic acid, pH 3; gradient (min/%B) 0/0 1/0 6/5 30/100 35/100 35.1/0 40/0
[4] = RP, Waters ACQUITY UPLC BEH C18, 100 × 2.1 mm, 1.7 µm, 0.1 mL/min, estimated dead time 2.2 min; A: water + 0.1% formic acid, pH 3; B: methanol + 0.1% formic acid, pH 3; gradient (min/%B) 0/5 5/5 25/95 25.1/100 35/100 35.1/5 45/5
[5] = RP, Waters ACQUITY UPLC BEH C18, 100 × 2.1 mm, 1.7 µm, 0.1 mL/min, estimated dead time 2.2 min; A: water + 0.045% formic acid + 0.11% ammonium hydroxide, pH 7; B: methanol; gradient (min/%B) 0/5 5/5 25/95 25.1/100 35/100 35.1/5 45/5
[6] = HILIC, Merck SeQuant ZIC-HILIC, 150 × 2.1 mm, 5 µm, 0.75 mL/min, estimated dead time 0.44 min; A: water + 10 mM ammonium formate, pH 6; B: 5% water + 95% acetonitrile + 10 mM ammonium formate, pH 6; gradient (min/%B) 0/95 5/95 20/57 25/57 30/95 40/95
[7] = RP, Waters CORTECS T3, 100 × 2.1 mm, 2.7 µm, 0.3 mL/min, estimated dead time 0.73 min; A: water + 0.1% formic acid, pH 3; B: methanol + 0.1% formic acid, pH 3; gradient (min/%B) 0/5 5/5 25/95 25.1/100 35/100 35.1/5 45/5
[8] = RP, Waters CORTECS T3, 100 × 2.1 mm, 2.7 µm, 0.3 mL/min, estimated dead time 0.73 min; A: water + 0.1% formic acid, pH 3; B: methanol + 0.1% formic acid, pH 3; gradient (min/%B) 0/0 5/0 25/100 30/100 30.1/0 35/0
[9] = RP, Waters CORTECS T3, 100 × 2.1 mm, 2.7 µm, 0.1 mL/min, estimated dead time 2.2 min; A: water + 0.1% formic acid, pH 3; B: methanol + 0.1% formic acid, pH 3; gradient (min/%B) 0/0 1/0 6/5 30/100 35/100 35.1/0 40/0
[10] = RP, Waters CORTECS T3, 100 × 2.1 mm, 2.7 µm, 0.2 mL/min, estimated dead time 1.1 min; A: water + 0.045% formic acid + 0.11% ammonium hydroxide, pH 7; B: methanol; gradient (min/%B) 0/5 5/5 25/95 25.1/100 35/100 35.1/5 45/5
[11] = RP, Waters CORTECS T3, 100 × 2.1 mm, 2.7 µm, 0.2 mL/min, estimated dead time 1.1 min; A: water + 0.1% formic acid, pH 3; B: methanol + 0.1% formic acid, pH 3; gradient (min/%B) 0/0 1/0 6/5 30/100 35/100 35.1/0 40/0
[12] = RP, Waters CORTECS T3, 100 × 2.1 mm, 2.7 µm, 0.3 mL/min, estimated dead time 0.73 min; A: water + 0.1% formic acid, pH 3; B: methanol + 0.1% formic acid, pH 3; gradient (min/%B) 0/0 1/0 6/5 30/100 35/100 35.1/0 40/0
[13] = RP, Waters CORTECS T3, 100 × 2.1 mm, 2.7 µm, 0.3 mL/min, estimated dead time 0.73 min; A: water + 0.1% formic acid, pH 3; B: methanol + 0.1% formic acid, pH 3; gradient (min/%B) 0/5 5/5 25/100 30/100 30.1/5 35/5
[14] = RP, Thermo Scientific Hypercarb, 150 × 2.1 mm, 5 µm, 0.1 mL/min, estimated dead time 3.3 min; A: water + 0.1% formic acid, pH 3; B: methanol + 0.1% formic acid, pH 3; gradient (min/%B) 0/5 5/5 20/100 35/100 35.1/5 45/5
[15] = HILIC, Merck SeQuant ZIC-HILIC, 150 × 2.1 mm, 5 µm, 0.75 mL/min, estimated dead time 0.44 min; A: water + 0.1% acetic acid + 10 mM ammonium acetate, pH 4; B: 5% water + 95% acetonitrile + 0.1% acetic acid + 10 mM ammonium acetate, pH 4; gradient (min/%B) 0/95 5/95 20/57 25/57 30/95 40/95
[16] = RP, Waters CORTECS T3, 100 × 2.1 mm, 2.7 µm, 0.1 mL/min, estimated dead time 2.2 min; A: water + 0.1% formic acid, pH 3; B: methanol + 0.1% formic acid, pH 3; gradient (min/%B) 0/5 5/5 25/95 25.1/100 35/100 35.1/5 45/5
[17] = RP, Waters CORTECS T3, 100 × 2.1 mm, 2.7 µm, 0.25 mL/min, estimated dead time 0.88 min; A: water + 0.1% formic acid, pH 3; B: methanol + 0.1% formic acid, pH 3; gradient (min/%B) 0/0 1/0 6/5 30/100 35/100 35.1/0 40/0
[18] = RP, Waters ACQUITY UPLC BEH C18, 100 × 2.1 mm, 1.7 µm, 0.1 mL/min, estimated dead time 2.2 min; A: water + 0.1% formic acid, pH 3; B: methanol + 0.1% formic acid, pH 3; gradient (min/%B) 0/5 5/5 25/95 25.1/100 35/100 35.1/5 45/5; remark: listed apart in the source
[19] = HILIC, Waters XBridge BEH Amide, 100 × 2.1 mm, 2.5 µm, 0.5 mL/min, estimated dead time 0.44 min; A: water + 0.1% acetic acid + 10 mM ammonium acetate, pH 4; B: 5% water + 95% acetonitrile + 0.1% acetic acid + 10 mM ammonium acetate, pH 4; gradient (min/%B) 0/95 5/95 20/57 25/57 30/95 40/95
[20] = RP, Waters ACQUITY UPLC BEH C18, 100 × 2.1 mm, 1.7 µm, 0.2 mL/min, estimated dead time 1.1 min; A: water + 0.1% formic acid, pH 3; B: methanol + 0.1% formic acid, pH 3; gradient (min/%B) 0/5 5/5 25/100 30/100 30.1/5 35/5
[21] = RP, Waters CORTECS T3, 100 × 2.1 mm, 2.7 µm, 0.3 mL/min, estimated dead time 0.73 min; A: water + 0.1% formic acid, pH 3; B: methanol + 0.1% formic acid, pH 3; gradient (min/%B) 0/0 5/0 25/100 30/100 30.1/0 35/0; remark: listed apart in the source
[22] = RP, Waters ACQUITY UPLC BEH C18, 100 × 2.1 mm, 1.7 µm, 0.2 mL/min, estimated dead time 1.1 min; A: water + 0.025% formic acid + 20 mM ammonium acetate + 0.055% ammonium hydroxide, pH 7; B: methanol; gradient (min/%B) 0/5 5/5 25/100 30/100 30.1/5 35/5; remark: listed apart in the source
[23] = RP, Waters CORTECS T3, 100 × 2.1 mm, 2.7 µm, 0.2 mL/min, estimated dead time 1.1 min; A: water + 0.1% formic acid, pH 3; B: methanol + 0.1% formic acid, pH 3; gradient (min/%B) 0/0 1/0 6/5 30/100 35/100 35.1/0 40/0; remark: listed apart in the source
[24] = RP, Waters ACQUITY UPLC BEH C18, 100 × 2.1 mm, 1.7 µm, 0.1 mL/min, estimated dead time 2.2 min; A: water + 0.1% formic acid, pH 3; B: methanol + 0.1% formic acid, pH 3; gradient (min/%B) 0/5 5/5 25/95 25.1/100 35/100 35.1/5 45/5; remark: listed apart in the source
[25] = RP, Waters CORTECS T3, 100 × 2.1 mm, 2.7 µm, 0.2 mL/min, estimated dead time 1.1 min; A: water + 0.1% formic acid, pH 3; B: methanol + 0.1% formic acid, pH 3; gradient (min/%B) 0/5 5/5 25/95 25.1/100 35/100 35.1/5 45/5
[26] = RP, Waters CORTECS T3, 100 × 2.1 mm, 2.7 µm, 0.25 mL/min, estimated dead time 0.88 min; A: water + 0.1% formic acid, pH 3; B: methanol + 0.1% formic acid, pH 3; gradient (min/%B) 0/5 5/5 25/95 25.1/100 35/100 35.1/5 45/5
[27] = RP, Waters CORTECS T3, 100 × 2.1 mm, 2.7 µm, 0.3 mL/min, estimated dead time 0.73 min; A: water + 0.1% formic acid, pH 3; B: methanol + 0.1% formic acid, pH 3; gradient (min/%B) 0/0 1/0 6/5 30/100 35/100 35.1/0 40/0; remark: listed apart in the source

| Compound | LC retention time [1] [min] | LC retention time [2] [min] | LC retention time [3] [min] | LC retention time [4] [min] | LC retention time [5] [min] | LC retention time [7] [min] | LC retention time [8] [min] | LC retention time [9] [min] | LC retention time [10] [min] | LC retention time [11] [min] | LC retention time [12] [min] | LC retention time [13] [min] | LC retention time [15] [min] | LC retention time [16] [min] | LC retention time [17] [min] | LC retention time [18] [min] | LC retention time [19] [min] | LC retention time [20] [min] | LC retention time [22] [min] | LC retention time [23] [min] | other results |
| --- | --- | --- | --- | --- | --- | --- | --- | --- | --- | --- | --- | --- | --- | --- | --- | --- | --- | --- | --- | --- | --- |
| Cn1cnc2c(ncn2C2OC(CO)C(O)C2O)c1=N (stereo not given) [1-METHYLADENOSINE] | 10.5 | 10.5 | 10.7 | 10.6 | 13.5 | 4.96 | 8.57 | 7.08 | 10.7 | 9.42 | 8.04 | 5.02 | 1.51 | 10.9 | 8.69 | 2.66 | 2.22 |  |  |  | LC retention time [6]: 1.56 min; LC retention time [14]: 21.8 min |
| CSCC1OC(n2cnc3c(N)ncnc32)C(O)C1O (stereo not given) [5'-METHYLTHIOADENOSINE] | 12.1 | 12.9 | 12.6 | 13.1 | 15.4 | 8.59 | 9.9 | 9.84 | 12.3 | 11.3 | 10.1 | 8.5 | 1.23 | 13 | 10.7 | 13.1 | 1.61 |  |  |  | LC retention time [6]: 1.29 min |
| Nc1ccn(C2OC(CO)C3OP(=O)([O-])OC32)c(=O)n1 (stereo not given) [CYTIDINE 2',3'-CYCLIC MONOPHOSPHATE] |  | 2.74 | 1.78 | 2.66 |  |  | 0.89 |  |  | 1.34 |  |  | 12.1 |  | 1.09 | 2.72 |  | 1.34 | 1.36 | 1.35 | LC retention time [21]: 0.89 min; LC retention time [24]: 2.67 min |
| Nc1nc2c(ncn2C2OC3COP(=O)(O)OC3C2O)c(=O)[nH]1 (stereo not given) [GUANOSINE 3',5'-CYCLIC MONOPHOSPHATE] |  | 7.01 | 9.04 | 6.68 |  | 2.59 |  | 3.77 |  | 7.21 | 5.42 | 2.67 | 12.3 | 7.41 | 6.2 | 2.72 | 12.3 | 3.76 | 1.41 | 7.35 | LC retention time [21]: 6.99 min; LC retention time [25]: 11.1 min; LC retention time [26]: 3.22 min; LC retention time [27]: 5.71 min; LC retention time [24]: 7.13 min |
| Cc1cc2nc3[nH]c(=O)[nH]c(=O)c3nc2cc1C [LUMICHROME] | 16 | 19.1 | 19.6 | 19.6 | 19.5 | 15 | 15.3 | 16.3 | 16.4 | 18.3 |  | 14.6 |  | 19.6 | 17.5 | 19.6 |  | 16 | 13.1 | 18.3 | LC retention time [26]: 15.5 min; LC retention time [24]: 19.6 min |
